PubChem BioAssay AID248 (DTP/NCI, 2004)
Values joined by “and” are separate entries in the source; they are usually repeats but may differ in a detail not shown here. Equal entries are not always repeated. Toxic doses and inconclusive results are not listed. Rule as the data show it: active = T/C of 150% or more; inactive = T/C below 125%.

Test system: L1210 leukemia ip in BDF1 mice, survival T/C
Test: NCI In Vivo Anticancer Drug Screen. Data for tumor model L1210 Leukemia (intraperitoneal) in B6D2F1 (BDF1) mice
Settings: endpoint: mean survival time, higher = longer survival
In short: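 Value reflects the ratio of survival in compound-treated mice to survival in vehicle-treated controls, with both groups carrying the same transplanted tumor.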

[1] = dose: 100.0 mg/kg/injection, schedule: Q04DX003 (ip), vehicle: saline with Tween-80
[2] = dose: 200.0 mg/kg/injection, schedule: Q04DX003 (ip), vehicle: saline with Tween-80
[3] = dose: 400.0 mg/kg/injection, schedule: Q04DX003 (ip), vehicle: saline with Tween-80
[4] = dose: 100.0 mg/kg/injection, schedule: Q01DX009 (ip), vehicle: Klucel (hydroxypropylcellulose) (HPC)
[5] = dose: 200.0 mg/kg/injection, schedule: Q01DX009 (ip), vehicle: Klucel (hydroxypropylcellulose) (HPC)
[6] = dose: 400.0 mg/kg/injection, schedule: Q01DX009 (ip), vehicle: Klucel (hydroxypropylcellulose) (HPC)
[7] = dose: 100.0 mg/kg/injection, schedule: Q01DX009 (ip), vehicle: saline with Tween-80
[8] = dose: 200.0 mg/kg/injection, schedule: Q01DX009 (ip), vehicle: saline with Tween-80
[9] = dose: 100.0 mg/kg/injection, schedule: Q04DX003 (ip), vehicle: Klucel (hydroxypropylcellulose) (HPC)
[10] = dose: 200.0 mg/kg/injection, schedule: Q04DX003 (ip), vehicle: Klucel (hydroxypropylcellulose) (HPC)
[11] = dose: 25.0 mg/kg/injection, schedule: Q04DX002 (ip), vehicle: Klucel (hydroxypropylcellulose) (HPC)
[12] = dose: 50.0 mg/kg/injection, schedule: Q04DX002 (ip), vehicle: Klucel (hydroxypropylcellulose) (HPC)
[13] = dose: 100.0 mg/kg/injection, schedule: Q04DX002 (ip), vehicle: Klucel (hydroxypropylcellulose) (HPC)
[14] = dose: 50.0 mg/kg/injection, schedule: Q01DX009 (ip), vehicle: saline
[15] = dose: 100.0 mg/kg/injection, schedule: Q01DX001 (ip), vehicle: Klucel (hydroxypropylcellulose) (HPC)
[16] = dose: 200.0 mg/kg/injection, schedule: Q01DX001 (ip), vehicle: Klucel (hydroxypropylcellulose) (HPC)

Measured: T/C

CC(C)(Cl)N=Nc1ccc([N+](=O)[O-])cc1[N+](=O)[O-]
inactive: [1] 96 % of control | [2] 98 % of control | [3] 88 % of control

O=C(Nc1ccccc1F)Oc1ccc2ccccc2c1
inactive: [4] 106 % of control | [5] 107 % of control | [6] 103 % of control

CC(C)N=C(c1ccccc1)N(O)c1ccccc1
inactive: dose: 75.0 mg/kg/injection, schedule: Q01DX001 (ip), vehicle: saline 93 % of control | dose: 150.0 mg/kg/injection, schedule: Q01DX001 (ip), vehicle: saline 101 % of control | dose: 300.0 mg/kg/injection, schedule: Q01DX001 (ip), vehicle: saline 91 % of control

CCN(C(=O)c1cccc(C(=O)N(CC)c2ccccc2C)c1)c1ccccc1C
inactive: dose: 50.0 mg/kg/injection, schedule: Q01DX009 (ip), vehicle: saline with Tween-80 97 % of control | [7] 90 % of control | [1] 99 % of control | [8] 89 % of control | [2] 90 % of control

Cc1ccc2cc3c(ccc4ccccc43)c3c2c1CC3
inactive: [1] 119 % of control | [2] 120 % of control | [3] 120 % of control

CCOC(=S)SCCC(=O)O
inactive: [7] 95 % of control

Cc1ccc(NC(=S)Nc2ccccc2F)cc1
inactive: dose: 100.0 mg/kg/injection, schedule: Q01DX001 (ip), vehicle: saline with Tween-80 94 % of control and 100 % of control | dose: 100.0 mg/kg/injection, schedule: Q04DX002 (ip), vehicle: saline with Tween-80 100 % of control and 104 % of control | dose: 200.0 mg/kg/injection, schedule: Q01DX001 (ip), vehicle: saline with Tween-80 98 % of control and 100 % of control | dose: 200.0 mg/kg/injection, schedule: Q04DX002 (ip), vehicle: saline with Tween-80 95 % of control | dose: 400.0 mg/kg/injection, schedule: Q01DX001 (ip), vehicle: saline with Tween-80 96 % of control and 103 % of control | dose: 400.0 mg/kg/injection, schedule: Q04DX002 (ip), vehicle: saline with Tween-80 92 % of control and 104 % of control

CCOC(=O)c1cnc(=S)[nH]c1N
inactive: dose: 50.0 mg/kg/injection, schedule: Q01DX009 (ip), vehicle: Klucel (hydroxypropylcellulose) (HPC) 102 % of control | dose: 50.0 mg/kg/injection, schedule: Q04DX003 (ip), vehicle: Klucel (hydroxypropylcellulose) (HPC) 95 % of control | [4] 96 % of control | [9] 95 % of control | [5] 93 % of control | [10] 97 % of control

Cc1cccc(C(=O)OCc2ccccc2CN2CCCCC2)c1
inactive: [11] 105 % of control | [12] 105 % of control | [13] 105 % of control

CCCCCCCC/C=C\CCCCCCCC(=O)NCCCOCCOCCOCC
inactive: dose: 75.0 mg/kg/injection, schedule: Q01DX009 (ip), vehicle: saline 97 % of control | dose: 75.0 mg/kg/injection, schedule: Q04DX003 (ip), vehicle: saline 94 % of control | dose: 150.0 mg/kg/injection, schedule: Q01DX009 (ip), vehicle: saline 101 % of control | dose: 150.0 mg/kg/injection, schedule: Q04DX003 (ip), vehicle: saline 90 % of control | dose: 300.0 mg/kg/injection, schedule: Q01DX009 (ip), vehicle: saline 87 % of control | dose: 300.0 mg/kg/injection, schedule: Q04DX003 (ip), vehicle: saline 95 % of control

O=C(NC(=S)c1ccc[nH]1)Nc1ccccc1
inactive: [14] 93 % of control | dose: 100.0 mg/kg/injection, schedule: Q01DX009 (ip), vehicle: saline 90 % of control | dose: 200.0 mg/kg/injection, schedule: Q01DX009 (ip), vehicle: saline 90 % of control

S=P(NCCSCc1ccccc1)(N1CC1)N1CC1
inactive: dose: 6.5 mg/kg/injection, schedule: Q01DX011 (ip), vehicle: carboxymethylcellulose (CMC) 98 % of control | dose: 13.0 mg/kg/injection, schedule: Q01DX011 (ip), vehicle: carboxymethylcellulose (CMC) 102 % of control | dose: 26.0 mg/kg/injection, schedule: Q01DX011 (ip), vehicle: carboxymethylcellulose (CMC) 110 % of control | dose: 200.0 mg/kg/injection, schedule: Q01DX015 (ip), vehicle: carboxymethylcellulose (CMC) 106 % of control

O=C(OCCn1c(-c2ccccn2)nc2ccccc21)C(O)(c1ccccc1)c1ccccc1
inactive: [15] 102 % of control | [16] 93 % of control

CC(O)CC[P+](c1ccccc1)(c1ccccc1)c1ccccc1 (stereo unspecified)
inactive: dose: 75.0 mg/kg/injection, schedule: Q01DX001 (ip), vehicle: other 101 % of control | dose: 150.0 mg/kg/injection, schedule: Q01DX001 (ip), vehicle: other 93 % of control

Cc1ccc(C(C)(C)Cl)cc1O
inactive: [7] 93 % of control | [1] 96 % of control | [8] 93 % of control | [2] 102 % of control | dose: 400.0 mg/kg/injection, schedule: Q01DX009 (ip), vehicle: saline with Tween-80 98 % of control | [3] 102 % of control

CCCCCCCCCCCCCCCC[As](=O)(O)O
inactive: [9] 121 % of control | [10] 93 % of control | dose: 400.0 mg/kg/injection, schedule: Q04DX003 (ip), vehicle: Klucel (hydroxypropylcellulose) (HPC) 90 % of control

O=C(C[P+](c1ccccc1)(c1ccccc1)c1ccccc1)Nc1ccccc1
inactive: dose: 10.0 mg/kg/injection, schedule: Q01DX009 (ip), vehicle: Klucel (hydroxypropylcellulose) (HPC) 100 % of control | dose: 20.0 mg/kg/injection, schedule: Q01DX009 (ip), vehicle: Klucel (hydroxypropylcellulose) (HPC) 108 % of control | dose: 40.0 mg/kg/injection, schedule: Q01DX009 (ip), vehicle: Klucel (hydroxypropylcellulose) (HPC) 100 % of control | dose: 75.0 mg/kg/injection, schedule: Q01DX009 (ip), vehicle: Klucel (hydroxypropylcellulose) (HPC) 107 % of control

O=C(/C=C/c1ccc(Cl)c(Cl)c1)c1ccccc1[N+](=O)[O-]
inactive: [4] 103 % of control | [5] 97 % of control | [6] 92 % of control

COC(=O)C(C)CN1CCCC1 (stereo unspecified)
inactive: dose: 12.5 mg/kg/injection, schedule: Q01DX009 (ip), vehicle: saline 97 % of control | dose: 25.0 mg/kg/injection, schedule: Q01DX009 (ip), vehicle: saline 88 % of control | dose: 25.0 mg/kg/injection, schedule: Q04DX003 (ip), vehicle: saline 98 % of control | [14] 100 % of control | dose: 50.0 mg/kg/injection, schedule: Q04DX003 (ip), vehicle: saline 107 % of control | dose: 100.0 mg/kg/injection, schedule: Q04DX003 (ip), vehicle: saline 104 % of control

C#CCI
inactive: dose: 37.5 mg/kg/injection, schedule: Q04DX003 (ip), vehicle: Klucel (hydroxypropylcellulose) (HPC) 108 % of control | dose: 75.0 mg/kg/injection, schedule: Q04DX003 (ip), vehicle: Klucel (hydroxypropylcellulose) (HPC) 100 % of control | dose: 150.0 mg/kg/injection, schedule: Q04DX003 (ip), vehicle: Klucel (hydroxypropylcellulose) (HPC) 103 % of control

CCCN1CSC(=S)N(Cc2ccccc2)C1
inactive: [1] 95 % of control | [2] 93 % of control | [3] 90 % of control

Clc1ccc(SCSc2nc3ccccc3s2)cc1
inactive: [11] 105 % of control | [12] 86 % of control | [13] 93 % of control

COC(=O)C1c2ccccc2-c2ccc(N3C(=O)C=CC3=O)cc21 (stereo unspecified)
inactive: [1] 107 % of control | [2] 104 % of control | [3] 115 % of control

O=C(NCCCCCCNC(=O)c1ccccc1)c1ccccc1
inactive: dose: 50.0 mg/kg/injection, schedule: Q01DX001 (ip), vehicle: carboxymethylcellulose (CMC) 100 % of control | dose: 100.0 mg/kg/injection, schedule: Q01DX001 (ip), vehicle: carboxymethylcellulose (CMC) 103 % of control | dose: 200.0 mg/kg/injection, schedule: Q01DX001 (ip), vehicle: carboxymethylcellulose (CMC) 97 % of control | dose: 400.0 mg/kg/injection, schedule: Q01DX001 (ip), vehicle: carboxymethylcellulose (CMC) 97 % of control

CC1(C(=O)c2ccccc2)CN(C(C)(C)C)C1c1ccccc1 (stereo unspecified)
inactive: dose: 50.0 mg/kg/injection, schedule: Q01DX001 (ip), vehicle: Klucel (hydroxypropylcellulose) (HPC) 97 % of control | [15] 95 % of control | [16] 94 % of control
